Species on record: Rattus norvegicus
Test: DrugMatrix - Regimen: Daily Repeat
Assay type: toxicity, organism-based, Sprague-Dawley
Design: regimen Daily Repeat, gender Male, age 6-8 weeks
Conditions: in vivo, po, route oral GAVAGE, vehicle .5 % CMC; for ABSOLUTE BASOPHIL / ABSOLUTE EOSINOPHIL / ABSOLUTE LYMPHOCYTE / ABSOLUTE MONOCYTE / ABSOLUTE SEGMENTED NEUTROPHIL / BASOPHIL / EOSINOPHIL / ERYTHROCYTE COUNT / HEMATOCRIT / HEMOGLOBIN / LEUKOCYTE COUNT / LYMPHOCYTE / MEAN CORPUSCULAR HEMOGLOBIN / MEAN CORPUSCULAR HEMOGLOBIN CONCENTRATION / MEAN CORPUSCULAR VOLUME / MONOCYTE / NEUTROPHIL / NUCLEATED RED BLOOD CELLS / PLATELET COUNT: tissue Blood; for ALANINE AMINOTRANSFERASE / ALBUMIN / ALKALINE PHOSPHATASE / ASPARTATE AMINOTRANSFERASE / BLOOD UREA NITROGEN / CARBON DIOXIDE / CHLORIDE / CHOLESTEROL / CREATINE PHOSPHOKINASE / CREATININE / GLUCOSE / LACTATE DEHYDROGENASE / LIPASE / PHOSPHORUS / POTASSIUM / SODIUM / TOTAL BILIRUBIN / TOTAL PROTEIN / URIC ACID: tissue Plasma
[1] = 200 mg/kg, 120 h, dose level Low, time 5 day
[2] = 2500 mg/kg, 72 h, dose level High, time 3 day
[3] = 2500 mg/kg, 120 h, dose level High, time 5 day

Question: Which “ABSOLUTE BASOPHIL” value [1] does the source give for `CCC1=C(C)CN(C(=O)NCCc2ccc(S(=O)(=O)NC(=O)N[C@H]3CC[C@H](C)CC3)cc2)C1=O` [GLIMEPIRIDE] here?
Answer: 0 CELLS/uL

Question: And the “ABSOLUTE EOSINOPHIL” value [1]?
Answer: 0 CELLS/uL

Question: And the “ABSOLUTE LYMPHOCYTE” value [1]?
Answer: 12890.33 CELLS/uL

Question: What about the “ABSOLUTE MONOCYTE” value [1] of the same compound?
Answer: 43.33 CELLS/uL

Question: And the “ABSOLUTE SEGMENTED NEUTROPHIL” value [1]?
Answer: 866.33 CELLS/uL

Question: What about the BASOPHIL [1] of the same compound?
Answer: 0%

Question: And the EOSINOPHIL [1]?
Answer: 0%

Question: What about the “ERYTHROCYTE COUNT” value [1] of the same compound?
Answer: 5.84 x10E6/uL

Question: And the HEMATOCRIT [1]?
Answer: 36.5%

Question: What about the HEMOGLOBIN [1] of the same compound?
Answer: 14.63 G/DL

Question: And the “LEUKOCYTE COUNT” value [1]?
Answer: 13.8 x10E3/uL

Question: What about the LYMPHOCYTE [1] of the same compound?
Answer: 93.33%

Question: And the “MEAN CORPUSCULAR HEMOGLOBIN” value [1]?
Answer: 25.03 pg

Question: And the “MEAN CORPUSCULAR HEMOGLOBIN CONCENTRATION” value [1]?
Answer: 40.1 G/DL

Question: What about the “MEAN CORPUSCULAR VOLUME” value [1] of the same compound?
Answer: 62.43 fL

Question: What about the MONOCYTE [1] of the same compound?
Answer: 0.33%

Question: What about the NEUTROPHIL [1] of the same compound?
Answer: 6.33%

Question: What about the “NUCLEATED RED BLOOD CELLS” value [1] of the same compound?
Answer: 0 /100WBC

Question: And the “PLATELET COUNT” value [1]?
Answer: 1124.67 x10E3/uL

Question: What about the “ALANINE AMINOTRANSFERASE” value [1] of the same compound?
Answer: 58.33 u/L

Question: What about the ALBUMIN [1] of the same compound?
Answer: 4.43 G/DL

Question: And the “ALKALINE PHOSPHATASE” value [1]?
Answer: 402 u/L

Question: What about the “ASPARTATE AMINOTRANSFERASE” value [1] of the same compound?
Answer: 81.33 u/L

Question: And the “BLOOD UREA NITROGEN” value [1]?
Answer: 15.67 mg/dL

Question: What about the “CARBON DIOXIDE” value [1] of the same compound?
Answer: 31.67 mmol/L

Question: And the CHLORIDE [1]?
Answer: 101.33 MEQ/L

Question: What about the CHOLESTEROL [1] of the same compound?
Answer: 75 mg/dL

Question: What about the “CREATINE PHOSPHOKINASE” value [1] of the same compound?
Answer: 241.33 u/L

Question: And the CREATININE [1]?
Answer: 0.18 mg/dL

Question: What about the GLUCOSE [1] of the same compound?
Answer: 154 mg/dL

Question: What about the “LACTATE DEHYDROGENASE” value [1] of the same compound?
Answer: 123.67 u/L

Question: And the LIPASE [1]?
Answer: 10 u/L

Question: What about the PHOSPHORUS [1] of the same compound?
Answer: 10.53 mg/dL

Question: And the POTASSIUM [1]?
Answer: 6.31 MEQ/L

Question: What about the SODIUM [1] of the same compound?
Answer: 143.8 MEQ/L

Question: And the “TOTAL BILIRUBIN” value [1]?
Answer: 0.2 mg/dL

Question: What about the “TOTAL PROTEIN” value [1] of the same compound?
Answer: 6.23 G/DL

Question: What about the “URIC ACID” value [1] of the same compound?
Answer: 1.13 mg/dL

Question: And the “ABSOLUTE BASOPHIL” value [2]?
Answer: 0 CELLS/uL

Question: What about the “ABSOLUTE EOSINOPHIL” value [2] of the same compound?
Answer: 0 CELLS/uL

Question: What about the “ABSOLUTE LYMPHOCYTE” value [2] of the same compound?
Answer: 11733.33 CELLS/uL

Question: And the “ABSOLUTE MONOCYTE” value [2]?
Answer: 88 CELLS/uL

Question: What about the “ABSOLUTE SEGMENTED NEUTROPHIL” value [2] of the same compound?
Answer: 778.67 CELLS/uL

Question: What about the BASOPHIL [2] of the same compound?
Answer: 0%

Question: And the EOSINOPHIL [2]?
Answer: 0%

Question: What about the “ERYTHROCYTE COUNT” value [2] of the same compound?
Answer: 5.59 x10E6/uL

Question: And the HEMATOCRIT [2]?
Answer: 36.03%

Question: What about the HEMOGLOBIN [2] of the same compound?
Answer: 14.23 G/DL

Question: And the “LEUKOCYTE COUNT” value [2]?
Answer: 12.6 x10E3/uL

Question: And the LYMPHOCYTE [2]?
Answer: 92.67%

Question: What about the “MEAN CORPUSCULAR HEMOGLOBIN” value [2] of the same compound?
Answer: 25.47 pg

Question: And the “MEAN CORPUSCULAR HEMOGLOBIN CONCENTRATION” value [2]?
Answer: 39.6 G/DL

Question: What about the “MEAN CORPUSCULAR VOLUME” value [2] of the same compound?
Answer: 64.33 fL

Question: And the MONOCYTE [2]?
Answer: 0.67%

Question: And the NEUTROPHIL [2]?
Answer: 6.67%

Question: What about the “NUCLEATED RED BLOOD CELLS” value [2] of the same compound?
Answer: 0.33 /100WBC

Question: What about the “PLATELET COUNT” value [2] of the same compound?
Answer: 1148 x10E3/uL

Question: What about the “ALANINE AMINOTRANSFERASE” value [2] of the same compound?
Answer: 60.33 u/L

Question: What about the ALBUMIN [2] of the same compound?
Answer: 4.2 G/DL

Question: And the “ALKALINE PHOSPHATASE” value [2]?
Answer: 398.33 u/L

Question: What about the “ASPARTATE AMINOTRANSFERASE” value [2] of the same compound?
Answer: 110 u/L

Question: What about the “BLOOD UREA NITROGEN” value [2] of the same compound?
Answer: 16.67 mg/dL

Question: What about the “CARBON DIOXIDE” value [2] of the same compound?
Answer: 28 mmol/L

Question: What about the CHLORIDE [2] of the same compound?
Answer: 102.67 MEQ/L

Question: And the CHOLESTEROL [2]?
Answer: 61 mg/dL

Question: And the “CREATINE PHOSPHOKINASE” value [2]?
Answer: 802 u/L

Question: And the CREATININE [2]?
Answer: 0.14 mg/dL

Question: What about the GLUCOSE [2] of the same compound?
Answer: 165.67 mg/dL

Question: What about the “LACTATE DEHYDROGENASE” value [2] of the same compound?
Answer: 190 u/L

Question: And the LIPASE [2]?
Answer: 10.33 u/L

Question: What about the PHOSPHORUS [2] of the same compound?
Answer: 10.87 mg/dL

Question: And the POTASSIUM [2]?
Answer: 5.99 MEQ/L

Question: What about the SODIUM [2] of the same compound?
Answer: 143.87 MEQ/L

Question: And the “TOTAL BILIRUBIN” value [2]?
Answer: 0.1 mg/dL

Question: And the “TOTAL PROTEIN” value [2]?
Answer: 5.73 G/DL

Question: What about the “URIC ACID” value [2] of the same compound?
Answer: 1.47 mg/dL

Question: And the “ABSOLUTE BASOPHIL” value [3]?
Answer: 0 CELLS/uL

Question: What about the “ABSOLUTE EOSINOPHIL” value [3] of the same compound?
Answer: 80.67 CELLS/uL

Question: What about the “ABSOLUTE LYMPHOCYTE” value [3] of the same compound?
Answer: 11006.67 CELLS/uL

Question: And the “ABSOLUTE MONOCYTE” value [3]?
Answer: 128 CELLS/uL

Question: And the “ABSOLUTE SEGMENTED NEUTROPHIL” value [3]?
Answer: 1118 CELLS/uL

Question: What about the BASOPHIL [3] of the same compound?
Answer: 0%

Question: What about the EOSINOPHIL [3] of the same compound?
Answer: 0.67%

Question: What about the “ERYTHROCYTE COUNT” value [3] of the same compound?
Answer: 5.89 x10E6/uL

Question: What about the HEMATOCRIT [3] of the same compound?
Answer: 36.97%

Question: What about the HEMOGLOBIN [3] of the same compound?
Answer: 14.8 G/DL

Question: What about the “LEUKOCYTE COUNT” value [3] of the same compound?
Answer: 12.33 x10E3/uL

Question: And the LYMPHOCYTE [3]?
Answer: 89.33%

Question: And the “MEAN CORPUSCULAR HEMOGLOBIN” value [3]?
Answer: 25.13 pg

Question: And the “MEAN CORPUSCULAR HEMOGLOBIN CONCENTRATION” value [3]?
Answer: 40.07 G/DL

Question: And the “MEAN CORPUSCULAR VOLUME” value [3]?
Answer: 62.73 fL

Question: And the MONOCYTE [3]?
Answer: 1%

Question: And the NEUTROPHIL [3]?
Answer: 9%

Question: What about the “NUCLEATED RED BLOOD CELLS” value [3] of the same compound?
Answer: 0 /100WBC

Question: What about the “PLATELET COUNT” value [3] of the same compound?
Answer: 1082.67 x10E3/uL

Question: And the “ALANINE AMINOTRANSFERASE” value [3]?
Answer: 74 u/L

Question: What about the ALBUMIN [3] of the same compound?
Answer: 4.47 G/DL

Question: And the “ALKALINE PHOSPHATASE” value [3]?
Answer: 390 u/L

Question: What about the “ASPARTATE AMINOTRANSFERASE” value [3] of the same compound?
Answer: 96.33 u/L

Question: What about the “BLOOD UREA NITROGEN” value [3] of the same compound?
Answer: 19 mg/dL

Question: What about the “CARBON DIOXIDE” value [3] of the same compound?
Answer: 28.67 mmol/L

Question: What about the CHLORIDE [3] of the same compound?
Answer: 101.33 MEQ/L

Question: And the CHOLESTEROL [3]?
Answer: 72 mg/dL

Question: What about the “CREATINE PHOSPHOKINASE” value [3] of the same compound?
Answer: 380.67 u/L

Question: And the CREATININE [3]?
Answer: 0.18 mg/dL

Question: What about the GLUCOSE [3] of the same compound?
Answer: 132.33 mg/dL

Question: And the “LACTATE DEHYDROGENASE” value [3]?
Answer: 150.33 u/L

Question: And the LIPASE [3]?
Answer: 8 u/L

Question: And the PHOSPHORUS [3]?
Answer: 11.9 mg/dL

Question: And the POTASSIUM [3]?
Answer: 5.72 MEQ/L

Question: What about the SODIUM [3] of the same compound?
Answer: 145.67 MEQ/L

Question: And the “TOTAL BILIRUBIN” value [3]?
Answer: 0.23 mg/dL

Question: And the “TOTAL PROTEIN” value [3]?
Answer: 6.3 G/DL

Question: What about the “URIC ACID” value [3] of the same compound?
Answer: 1.5 mg/dL

From ChEMBL document CHEMBL3885881, “DrugMatrix”
